These results are taken from publication PMC5428354, “Screening of a natural compound library identifies emodin, a natural compound from Rheum palmatum Linn that inhibits DPP4” (PeerJ, 2017).

This assay has as its target DPP4 (Homo sapiens, UniProt P27487). In words: DPP4 activity assay (DPP4 inhibitor screening assay kit, Cayman).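 For all read-outs here: fluorescence read at excitation 360 nm and emission 460 nm after the enzyme reaction ran 30 min at 37 °C in a 96-well plate.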 Type of assay: biochemical. Also noted: purchased Cayman Chemical, Ann Arbor, MI, USA. As to conditions: 10 µM, control mean 100.0; for remaining activity at 10 µM: 0.5 h.
[1] abbreviates: Figure 1A raw data, read-out: DPP4 activity in library screen, Exp 1.
The mark [2] stands for this setting: Figure 1A raw data, read-out: DPP4 activity in library screen, Exp 2.
Setting [3] is: Figure 1A raw data, read-out: DPP4 activity in library screen, Exp 3.
[4] abbreviates: mean of Exp 1-3, read-out: DPP4 activity in library screen, Mean.

Structures are written as SMILES. Read-outs that look alike come from different tables or passages of the source.

Sequence of DPP4 (P27487 whole entry): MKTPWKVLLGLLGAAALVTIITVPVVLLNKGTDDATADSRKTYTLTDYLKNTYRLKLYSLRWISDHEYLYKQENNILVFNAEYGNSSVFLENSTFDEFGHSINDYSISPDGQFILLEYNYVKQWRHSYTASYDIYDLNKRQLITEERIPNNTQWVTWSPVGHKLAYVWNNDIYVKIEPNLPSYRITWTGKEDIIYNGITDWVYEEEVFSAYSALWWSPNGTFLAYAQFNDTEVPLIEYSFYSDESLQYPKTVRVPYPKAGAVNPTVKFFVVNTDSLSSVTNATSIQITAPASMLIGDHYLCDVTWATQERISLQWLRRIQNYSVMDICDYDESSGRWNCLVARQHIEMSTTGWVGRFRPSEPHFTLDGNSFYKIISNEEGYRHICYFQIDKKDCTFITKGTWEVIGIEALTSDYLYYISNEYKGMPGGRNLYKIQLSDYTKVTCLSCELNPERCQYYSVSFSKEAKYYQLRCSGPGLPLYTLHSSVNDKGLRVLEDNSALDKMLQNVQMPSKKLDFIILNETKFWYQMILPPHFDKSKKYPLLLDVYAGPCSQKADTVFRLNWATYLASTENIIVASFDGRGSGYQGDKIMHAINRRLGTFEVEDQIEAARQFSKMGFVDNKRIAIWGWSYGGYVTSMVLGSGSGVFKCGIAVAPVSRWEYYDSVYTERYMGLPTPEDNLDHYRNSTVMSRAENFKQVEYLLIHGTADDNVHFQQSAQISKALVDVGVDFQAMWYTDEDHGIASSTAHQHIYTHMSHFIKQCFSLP

For `O=c1c(O)c(-c2ccc(O)c(O)c2)oc2cc(O)ccc12` [Fisetin], the remaining activity at 10 µM came out at 72.3% under setting [1], 74% under setting [2], 51.8% under setting [3] and 66% under setting [4].
For `COc1ccc(-c2coc3cc(O)ccc3c2=O)cc1` [Formononetin], the remaining activity at 10 µM by setting is: under setting [1], 102%; under setting [2], 85.5%; under setting [3], 108%; under setting [4], 98.7%.
For `OCc1ccc(O[C@@H]2O[C@H](CO)[C@@H](O)[C@H](O)[C@H]2O)cc1` [Gastrodin], in that order: 91%, 91.5%, 98.6% and 93.7%.
As to `CC1(C)[C@@H](O[C@H]2O[C@H](C(=O)O)[C@@H](O)[C@H](O)[C@H]2O[C@@H]2O[C@H](C(=O)O)[C@@H](O)[C@H](O)[C@H]2O)CC[C@]2(C)[C@H]3C(=O)C=C4[C@@H]5C[C@@](C)(C(=O)O)CC[C@]5(C)CC[C@@]4(C)[C@]3(C)CC[C@@H]12` [Glycyrrhizin (Glycyrrhizic Acid), Glycyrrhizin], the remaining activity at 10 µM is, setting by setting: under setting [1], 137%; under setting [2], 78.9%; under setting [3], 65.2%; under setting [4], 93.8%.
For `Cc1cc2c(C(C)C)c(O)c(O)c(C=O)c2c(O)c1-c1c(C)cc2c(C(C)C)c(O)c(O)c(C=O)c2c1O` [Gossypol] the same measures were 54.6%, 59.8%, 51.6% and 55.3%.
As for `CN(C)Cc1c[nH]c2ccccc12` [Gramine], the remaining activity at 10 µM under setting [1] was found to be 97.6%, the remaining activity at 10 µM under setting [2] turned out to be 97.4%, the remaining activity at 10 µM under setting [3] stood at 88.2% and the remaining activity at 10 µM under setting [4] turned out to be 94.4%.
On to `Nc1nc2c(ncn2[C@@H]2O[C@H](CO)[C@@H](O)[C@H]2O)c(=O)[nH]1` [Guanosine], for which the remaining activity at 10 µM amounted to 104% under setting [1], 102% under setting [2], 90.2% under setting [3] and 98.5% under setting [4].
Consider `Oc1cc2c(cc1O)[C@@H]1c3ccc(O)c(O)c3OC[C@]1(O)C2` [Hematoxylin], for which the remaining activity at 10 µM under setting [1] came out at 70.1%, the remaining activity at 10 µM under setting [2] was 72%, the remaining activity at 10 µM under setting [3] amounted to 84.9% and the remaining activity at 10 µM under setting [4] is 75.7%.
With `COc1ccc([C@@H]2CC(=O)c3c(O)cc(O)cc3O2)cc1O` [Hesperetin], the remaining activity at 10 µM reads like this: under setting [1], 80.8%; under setting [2], 106%; under setting [3], 78.5%; under setting [4], 88.4%.
As for `COc1ccc([C@@H]2CC(=O)c3c(O)cc(O[C@@H]4O[C@H](CO[C@@H]5O[C@@H](C)[C@H](O)[C@@H](O)[C@H]5O)[C@@H](O)[C@H](O)[C@H]4O)cc3O2)cc1O` [Hesperidin], under “Figure 1A raw data”, the “DPP4 activity in library screen, Exp 1” value stood at 97.2; the “DPP4 activity in library screen, Exp 2” value is listed as 95.1; the “DPP4 activity in library screen, Exp 3” value is on record as 85.1. For the same compound, the “DPP4 activity in library screen, Mean” value (mean of Exp 1-3) turned out to be 92.5.
With `C=CCc1ccc(O)c(-c2ccc(O)c(CC=C)c2)c1` [Honokiol], the remaining activity at 10 µM under setting [1] is 106%, the remaining activity at 10 µM under setting [2] was 94.1%, the remaining activity at 10 µM under setting [3] came out at 105% and the remaining activity at 10 µM under setting [4] came to 102%.
Regarding `CN(C)CCc1ccc(O)cc1` [Hordenine], the remaining activity at 10 µM by setting is: under setting [1], 90.7%; under setting [2], 95.7%; under setting [3], 95.6%; under setting [4], 94%.
For `C[C@H](CCC(=O)O)[C@H]1CC[C@H]2[C@@H]3C[C@H](O)[C@@H]4C[C@H](O)CC[C@]4(C)[C@H]3CC[C@]12C` [Hyodeoxycholic acid (HDCA), Hyodeoxycholic acid], the remaining activity at 10 µM turned out to be 96.6% under setting [1], 94.7% under setting [2], 96.2% under setting [3] and 95.8% under setting [4].
Consider `O=c1[nH]cnc2nc[nH]c12` [Hypoxanthine], for which the remaining activity at 10 µM under setting [1] is 96.7%, the remaining activity at 10 µM under setting [2] was 99.3%, the remaining activity at 10 µM under setting [3] worked out at 98.5% and the remaining activity at 10 µM under setting [4] amounted to 98.2%.
Consider `COc1ccc(-c2oc3c(CC=C(C)C)c(O[C@@H]4O[C@H](CO)[C@@H](O)[C@H](O)[C@H]4O)cc(O)c3c(=O)c2O[C@@H]2O[C@@H](C)[C@H](O)[C@@H](O)[C@H]2O)cc1` [Icariin], for which the remaining activity at 10 µM came out at 76% under setting [1], 74.5% under setting [2], 78.7% under setting [3] and 76.4% under setting [4].
Turning to `O=C1Nc2ccccc2/C1=C1/Nc2ccccc2C1=O` [Indirubin], the remaining activity at 10 µM was 53.9% under setting [1], 58.9% under setting [2], 61.7% under setting [3] and 58.2% under setting [4].
For the compound `O=C(O)Cc1c[nH]c2ccccc12` [Indole-3-acetic acid], the remaining activity at 10 µM is, setting by setting: under setting [1], 115%; under setting [2], 108%; under setting [3], 121%; under setting [4], 115%.
On to `OCc1c[nH]c2ccccc12` [Indole-3-carbinol], for which the remaining activity at 10 µM reads like this: under setting [1], 103%; under setting [2], 92%; under setting [3], 88.7%; under setting [4], 94.6%.
On to `O=c1[nH]cnc2c1ncn2[C@@H]1O[C@H](CO)[C@@H](O)[C@H]1O` [Inosine], for which the remaining activity at 10 µM under setting [1] amounted to 95.4%, the remaining activity at 10 µM under setting [2] came to 94.1%, the remaining activity at 10 µM under setting [3] came to 102% and the remaining activity at 10 µM under setting [4] was 97.2%.
As for `CC(C)Oc1ccc2c(=O)c(-c3ccccc3)coc2c1` [Ipriflavone (Osteofix), Ipriflavone], the remaining activity at 10 µM by setting is: under setting [1], 85.8%; under setting [2], 99.7%; under setting [3], 98%; under setting [4], 94.5%.
As for `O=C(/C=C/c1ccc(O)cc1)c1ccc(O)cc1O` [Isoliquiritigenin], the remaining activity at 10 µM under setting [3] amounted to 31.6%.
As to `O=c1c(O)c(-c2ccc(O)cc2)oc2cc(O)cc(O)c12` [Kaempferol], the remaining activity at 10 µM under setting [1] turned out to be 52%, the remaining activity at 10 µM under setting [2] turned out to be 72.5%, the remaining activity at 10 µM under setting [3] is 70.4% and the remaining activity at 10 µM under setting [4] worked out at 65%.
As to `c1coc(CNc2ncnc3[nH]cnc23)c1` [Kinetin], the remaining activity at 10 µM under setting [1] turned out to be 97.6%, the remaining activity at 10 µM under setting [2] was found to be 93.8%, the remaining activity at 10 µM under setting [3] worked out at 93% and the remaining activity at 10 µM under setting [4] stood at 94.8%.
As for `C[C@@H]1O[C@@H](O)[C@H](O)[C@H](O)[C@H]1O.O` [L-(+)-Rhamnose Monohydrate], under “Figure 1A raw data”, the “DPP4 activity in library screen, Exp 1” value came out at 92.8; the “DPP4 activity in library screen, Exp 2” value was 91.1; the “DPP4 activity in library screen, Exp 3” value turned out to be 93. Also, the “DPP4 activity in library screen, Mean” value (mean of Exp 1-3) came to 92.3.
On to `Br.CCN1C[C@]2(OC(=O)c3ccccc3NC(C)=O)CC[C@H](OC)[C@]34C1[C@H](C[C@H]23)[C@@]1(O)C[C@H](OC)[C@H]2C[C@@H]4[C@]1(O)[C@H]2OC` [Lappaconite HBr], for which, for the setting “Figure 1A raw data”, the “DPP4 activity in library screen, Exp 1” value is on record as 95.4; the “DPP4 activity in library screen, Exp 2” value was 80.2; the “DPP4 activity in library screen, Exp 3” value stood at 92.6. For the same compound, the “DPP4 activity in library screen, Mean” value (mean of Exp 1-3) is on record as 89.4.
Consider `CC1(C)O[C@H]2CC(=O)OC[C@]23[C@H]2CC[C@@]4(C)[C@H](c5ccoc5)OC(=O)[C@H]5O[C@]54[C@]2(C)C(=O)C[C@@H]13` [Limonin], for which the remaining activity at 10 µM is, setting by setting: under setting [1], 104%; under setting [2], 106%; under setting [3], 91.4%; under setting [4], 101%.
In the case of `O=c1cc(-c2ccc(O)c(O)c2)oc2cc(O)cc(O)c12` [Luteolin], the remaining activity at 10 µM runs as follows: under setting [1], 61.4%; under setting [2], 68.3%; under setting [3], 70%; under setting [4], 66.6%.
With `C=CCc1ccc(O)c(-c2cc(CC=C)ccc2O)c1` [Magnolol], the remaining activity at 10 µM amounted to 97.6% under setting [1], 108% under setting [2], 83.9% under setting [3] and 96.4% under setting [4].
On to `CC1=C(CC/C(C)=C/CCC2=CC[C@H](C3=CC(=O)O[C@H]3O)O[C@H]2O)C(C)(C)CCC1` [Manoalide], for which the remaining activity at 10 µM runs as follows: under setting [1], 102%; under setting [2], 112%; under setting [3], 125%; under setting [4], 113%.
As to `C[C@H]1C(=O)O[C@@H]2CCN3CC=C(COC(=O)[C@](C)(O)[C@]1(C)O)[C@H]23` [Monocrotaline], the remaining activity at 10 µM under setting [1] was found to be 70.9%, the remaining activity at 10 µM under setting [2] amounted to 95.8%, the remaining activity at 10 µM under setting [3] was found to be 85.1% and the remaining activity at 10 µM under setting [4] was found to be 83.9%.
On to `O.O=c1c(O)c(-c2ccc(O)cc2O)oc2cc(O)cc(O)c12` [Morin Hydrate], for which, for the setting “Figure 1A raw data”, the “DPP4 activity in library screen, Exp 1” value is 79.5; the “DPP4 activity in library screen, Exp 2” value is on record as 73.7; the “DPP4 activity in library screen, Exp 3” value was determined as 79.4. Moreover, the “DPP4 activity in library screen, Mean” value (mean of Exp 1-3) is 77.5.
Take `O=c1c(O)c(-c2cc(O)c(O)c(O)c2)oc2cc(O)cc(O)c12` [Myricetin]: the “DPP4 activity in library screen, Exp 2” value (Figure 1A raw data) was 57.5. In addition, the “DPP4 activity in library screen, Mean” value (mean of Exp 1-3) was found to be 57.9.
`CCn1cc(C(=O)O)c(=O)c2ccc(C)nc21` [Nalidixic acid]: the remaining activity at 10 µM runs as follows: under setting [1], 95.6%; under setting [2], 94.7%; under setting [3], 93.5%; under setting [4], 94.6%.
